Tested on: patients with narcolepsy type 1 (NT1)
Assay: Subjective daytime sleepiness as assessed by Karolinska Sleepiness Scale (KSS), single dose (Cohorts 5, 6, 7)
Type: in vivo, human
Conditions: for KSS Change from Baseline, Mean / KSS Change from Baseline, Median / KSS Observed Value at Visit, Mean / KSS Observed Value at Visit, Median: Cmpd A 5 mg (N = 6)
Description: Daytime sleepiness as assessed by the Karolinska Sleepiness Scale (KSS).
Daytime sleepiness as assessed by KSS at predose and hourly until 11 hours after the start of infusion is presented in Table 13 as summary, in Table 14 as ANOVA and in Table 15 as ANOVA of change from baseline.

COC(=O)N1CCC[C@H](NS(C)(=O)=O)[C@@H]1CO[C@H]1CC[C@@H](c2ccccc2)CC1 [Compound A, methyl (2R,3S)-3-((methylsulfonyl)amino)-2-(((cis-4-phenylcyclohexyl)oxy)methyl)piperidine-1-carboxylate]
LS mean difference (95% CI) of KSS vs placebo during the 9 hour infusion, upper end of range (5 mg): −0.667 (−2.641, 1.307)
Change from Baseline in KSS, ANOVA Estimate (Cmpd A - Placebo) (5 mg, 1 hr): −2.833
KSS, ANOVA Estimate (Cmpd A - Placebo) (5 mg, 1 hr): −2.000
Change from Baseline in KSS, ANOVA Estimate (Cmpd A - Placebo) (5 mg, 2 hr): −4.333
KSS, ANOVA Estimate (Cmpd A - Placebo) (5 mg, 2 hr): −3.500
Change from Baseline in KSS, ANOVA Estimate (Cmpd A - Placebo) (5 mg, 3 hr): −2.167
KSS, ANOVA Estimate (Cmpd A - Placebo) (5 mg, 3 hr): −1.333
Change from Baseline in KSS, ANOVA Estimate (Cmpd A - Placebo) (5 mg, 4 hr): −4.167
KSS, ANOVA Estimate (Cmpd A - Placebo) (5 mg, 4 hr): −3.333
Change from Baseline in KSS, ANOVA Estimate (Cmpd A - Placebo) (5 mg, 5 hr): −3.500
KSS, ANOVA Estimate (Cmpd A - Placebo) (5 mg, 5 hr): −2.667
Change from Baseline in KSS, ANOVA Estimate (Cmpd A - Placebo) (5 mg, 6 hr): −4.333
KSS, ANOVA Estimate (Cmpd A - Placebo) (5 mg, 6 hr): −3.500
Change from Baseline in KSS, ANOVA Estimate (Cmpd A - Placebo) (5 mg, 7 hr): −4.333
KSS, ANOVA Estimate (Cmpd A - Placebo) (5 mg, 7 hr): −3.500
Change from Baseline in KSS, ANOVA Estimate (Cmpd A - Placebo) (5 mg, 8 hr): −3.500
KSS, ANOVA Estimate (Cmpd A - Placebo) (5 mg, 8 hr): −2.667
Change from Baseline in KSS, ANOVA Estimate (Cmpd A - Placebo) (5 mg, 9 hr): −1.500
KSS, ANOVA Estimate (Cmpd A - Placebo) (5 mg, 9 hr): −0.667
Change from Baseline in KSS, ANOVA Estimate (Cmpd A - Placebo) (5 mg, 10 hr): −2.000
KSS, ANOVA Estimate (Cmpd A - Placebo) (5 mg, 10 hr): −1.167
Change from Baseline in KSS, ANOVA Estimate (Cmpd A - Placebo) (5 mg, 11 hr): −0.167
KSS, ANOVA Estimate (Cmpd A - Placebo) (5 mg, 11 hr): 0.667
LS mean difference (95% CI) of KSS vs placebo during the 9 hour infusion, lower end of range (5 mg, at 2 hour, 6 hour and 7 hour after the start of infusion): −3.500
LS mean difference (95% CI) of KSS vs placebo during the 9 hour infusion, lower end of range (11.2 mg): −4.000 (−7.331, −0.669)
LS mean difference (95% CI) of KSS vs placebo during the 9 hour infusion, upper end of range (11.2 mg): −1.500 (−3.439, 0.439)
Change from Baseline in KSS, ANOVA Estimate (Cmpd A - Placebo) (11.2 mg, 1 hr): −4.500
KSS, ANOVA Estimate (Cmpd A - Placebo) (11.2 mg, 1 hr): −3.500
Change from Baseline in KSS, ANOVA Estimate (Cmpd A - Placebo) (11.2 mg, 2 hr): −4.500
KSS, ANOVA Estimate (Cmpd A - Placebo) (11.2 mg, 2 hr): −3.500
Change from Baseline in KSS, ANOVA Estimate (Cmpd A - Placebo) (11.2 mg, 3 hr): −2.500
KSS, ANOVA Estimate (Cmpd A - Placebo) (11.2 mg, 3 hr): −1.500
Change from Baseline in KSS, ANOVA Estimate (Cmpd A - Placebo) (11.2 mg, 4 hr): −5.000
KSS, ANOVA Estimate (Cmpd A - Placebo) (11.2 mg, 4 hr): −4.000
Change from Baseline in KSS, ANOVA Estimate (Cmpd A - Placebo) (11.2 mg, 5 hr): −4.000
KSS, ANOVA Estimate (Cmpd A - Placebo) (11.2 mg, 5 hr): −3.000
Change from Baseline in KSS, ANOVA Estimate (Cmpd A - Placebo) (11.2 mg, 6 hr): −4.000
KSS, ANOVA Estimate (Cmpd A - Placebo) (11.2 mg, 6 hr): −3.000
Change from Baseline in KSS, ANOVA Estimate (Cmpd A - Placebo) (11.2 mg, 7 hr): −4.500
KSS, ANOVA Estimate (Cmpd A - Placebo) (11.2 mg, 7 hr): −3.500
Change from Baseline in KSS, ANOVA Estimate (Cmpd A - Placebo) (11.2 mg, 8 hr): −3.500
KSS, ANOVA Estimate (Cmpd A - Placebo) (11.2 mg, 8 hr): −2.500
Change from Baseline in KSS, ANOVA Estimate (Cmpd A - Placebo) (11.2 mg, 9 hr): −3.000
KSS, ANOVA Estimate (Cmpd A - Placebo) (11.2 mg, 9 hr): −2.000
Change from Baseline in KSS, ANOVA Estimate (Cmpd A - Placebo) (11.2 mg, 10 hr): −2.500
KSS, ANOVA Estimate (Cmpd A - Placebo) (11.2 mg, 10 hr): −1.500
Change from Baseline in KSS, ANOVA Estimate (Cmpd A - Placebo) (11.2 mg, 11 hr): −2.000
KSS, ANOVA Estimate (Cmpd A - Placebo) (11.2 mg, 11 hr): −1.000
LS mean difference (95% CI) of KSS vs placebo during the 9 hour infusion, lower end of range (44.8 mg): −6.947 (−9.139, −4.756)
LS mean difference (95% CI) of KSS vs placebo during the 9 hour infusion, upper end of range (44.8 mg): −2.868 (−6.851, 1.114)
Change from Baseline in KSS, ANOVA Estimate (Cmpd A - Placebo) (44.8 mg, 1 hr): −5.237
KSS, ANOVA Estimate (Cmpd A - Placebo) (44.8 mg, 1 hr): −6.947
Change from Baseline in KSS, ANOVA Estimate (Cmpd A - Placebo) (44.8 mg, 2 hr): −3.053
KSS, ANOVA Estimate (Cmpd A - Placebo) (44.8 mg, 2 hr): −4.763
Change from Baseline in KSS, ANOVA Estimate (Cmpd A - Placebo) (44.8 mg, 3 hr): −1.553
KSS, ANOVA Estimate (Cmpd A - Placebo) (44.8 mg, 3 hr): −3.263
Change from Baseline in KSS, ANOVA Estimate (Cmpd A - Placebo) (44.8 mg, 4 hr): −2.184
KSS, ANOVA Estimate (Cmpd A - Placebo) (44.8 mg, 4 hr): −3.895
Change from Baseline in KSS, ANOVA Estimate (Cmpd A - Placebo) (44.8 mg, 5 hr): −2.026
KSS, ANOVA Estimate (Cmpd A - Placebo) (44.8 mg, 5 hr): −3.737
Change from Baseline in KSS, ANOVA Estimate (Cmpd A - Placebo) (44.8 mg, 6 hr): −1.158
KSS, ANOVA Estimate (Cmpd A - Placebo) (44.8 mg, 6 hr): −2.868
Change from Baseline in KSS, ANOVA Estimate (Cmpd A - Placebo) (44.8 mg, 7 hr): −3.737
KSS, ANOVA Estimate (Cmpd A - Placebo) (44.8 mg, 7 hr): −5.447
Change from Baseline in KSS, ANOVA Estimate (Cmpd A - Placebo) (44.8 mg, 8 hr): −2.921
KSS, ANOVA Estimate (Cmpd A - Placebo) (44.8 mg, 8 hr): −4.632
Change from Baseline in KSS, ANOVA Estimate (Cmpd A - Placebo) (44.8 mg, 9 hr): −2.868
KSS, ANOVA Estimate (Cmpd A - Placebo) (44.8 mg, 9 hr): −4.579
Change from Baseline in KSS, ANOVA Estimate (Cmpd A - Placebo) (44.8 mg, 10 hr): −0.632
KSS, ANOVA Estimate (Cmpd A - Placebo) (44.8 mg, 10 hr): −2.342
Change from Baseline in KSS, ANOVA Estimate (Cmpd A - Placebo) (44.8 mg, 11 hr): 0.974
KSS, ANOVA Estimate (Cmpd A - Placebo) (44.8 mg, 11 hr): −0.737
KSS Change from Baseline, Mean (1 hr after start of infusion): −2.3
KSS Change from Baseline, Median (1 hr after start of infusion): −2.5
KSS Observed Value at Visit, Mean (1 hr after start of infusion): 2.7
KSS Observed Value at Visit, Median (1 hr after start of infusion): 2.5
KSS Change from Baseline, Mean (2 hr after start of infusion): −2.8
KSS Change from Baseline, Median (2 hr after start of infusion): −2.5
KSS Observed Value at Visit, Mean (2 hr after start of infusion): 2.2
KSS Observed Value at Visit, Median (2 hr after start of infusion): 2.0
KSS Change from Baseline, Mean (3 hr after start of infusion): −3.2
KSS Change from Baseline, Median (3 hr after start of infusion): −3.5
KSS Observed Value at Visit, Mean (3 hr after start of infusion): 1.8
KSS Observed Value at Visit, Median (3 hr after start of infusion): 1.5
KSS Change from Baseline, Mean (4 hr after start of infusion): −2.8
KSS Change from Baseline, Median (4 hr after start of infusion): −2.5
KSS Observed Value at Visit, Mean (4 hr after start of infusion): 2.2
KSS Observed Value at Visit, Median (4 hr after start of infusion): 1.5
KSS Change from Baseline, Mean (5 hr after start of infusion): −3.0
KSS Change from Baseline, Median (5 hr after start of infusion): −3.0
KSS Observed Value at Visit, Mean (5 hr after start of infusion): 2.0
KSS Observed Value at Visit, Median (5 hr after start of infusion): 2.0
KSS Change from Baseline, Mean (6 hr after start of infusion): −3.2
KSS Change from Baseline, Median (6 hr after start of infusion): −3.5
KSS Observed Value at Visit, Mean (6 hr after start of infusion): 1.8
KSS Observed Value at Visit, Median (6 hr after start of infusion): 1.5
KSS Change from Baseline, Mean (7 hr after start of infusion): −2.5
KSS Change from Baseline, Median (7 hr after start of infusion): −2.5
KSS Observed Value at Visit, Mean (7 hr after start of infusion): 2.5
KSS Observed Value at Visit, Median (7 hr after start of infusion): 2.5
KSS Change from Baseline, Mean (8 hr after start of infusion): −2.7
KSS Change from Baseline, Median (8 hr after start of infusion): −3.0
KSS Observed Value at Visit, Mean (8 hr after start of infusion): 2.3
